The test system of assay [1] is EPO-induced JAK2 signal pathway. Put plainly: EPO-induced proliferation of UT-7 cells (JAK2 signal). Format: cell-based, human. Conditions: Homo sapiens, UT7; UT-7 cell proliferation, EPO 10 ng/mL, 72 hours; read-out: Inhibition activity IC50 on EPO-induced JAK2 signal pathway. As to the method:
The cytokine EPO, i.e. erythropoietin, can promote the proliferation and division of erythroid progenitor cells, and the signal pathway induced by EPO coupling with its receptor is mediated by JAK2-STAT5.
Human promegakaryocytic leukemia cell line UT-7 was commercially available from Cell Resource Center, Institute of Basic Medicine, Chinese Academy of Medical Sciences. The culture medium was RPIM1640 containing 10% FBS, and EPO was added for a final concentration of 10 ng/mL.
The inhibition rate of the tested compound on EPO-induced cell proliferation was calculated using Microsoft Excel.
UT-7 cell line was inoculated in 96-well plate with flat bottom at 15000 cells per well, each well was added with 10 ng/mL of human recombinant EPO (Human EPO PEPROTECH 100-64-10UG), along with tested compound respectively for a final concentration of 0, 100, 1000 or 10000 nM. After culture at 37° C. and 5% CO2 for 72 hours, alamarBlue™ Cell Viability Reagent was added to each well following the instructions. After incubation at 37° C. for color reaction, the fluorescence value at Ex530/Em590 was detected using Tecan Spark™ 10M multimode microplate reader.
The well in which neither compound nor cytokine was added was designated as […], and the fluorescence value in the wells in which the final concentration of compound was 0 was designated as 100 control. The inhibition activity […] ofthe tested compound on JAK2 could be calculated from the inhibition rate ofthe tested compound on EPO-induced cell proliferation at different doses.

The subject of assay [2] is IL-2-induced JAK1/JAK3 signal pathway. Put plainly: IL-2-induced proliferation of KHYG-1 cells (JAK1/JAK3 signal). In kind it is cell-based, human. Conditions: Homo sapiens; KHYG-1 cell proliferation, IL-2 10 ng/mL, 72 hours; read-out: Inhibition activity IC50 on IL-2-induced JAK1/JAK3 signal pathway. From the text: The main physiological function of cytokine IL-2 is to stimulate and maintain the proliferation and differentiation of T cells. Generally, IL-2 dependent T cells cannot survive in in-vitro culture for a long time, but the addition of IL-2 can make them continue to proliferate. The signal pathway induced by IL-2 coupling with its receptor is mediated by JAK1/JAK3-STAT5, so the inhibitor of JAK1 and/or JAK3 can inhibit the proliferation of IL-2 dependent cells.
Human natural killer cell lymphoma cell line KHYG-1 was commercially available from Health Science Research Resources Bank (HSRRB), and relevant culture conditions referred to those from HSRRB.
The inhibition rate of the tested compound on IL-2-induced cell proliferation was calculated using Microsoft Excel.
After culture at 37° C. and 5% CO2 for 72 hours, alamarBlue™ Cell Viability Reagent was added to each well following the instructions.
The well in which neither compound nor cytokine was added was designated as 0% control well, and the fluorescence value in the wells in which the final concentration of compound was 0 was designated as 100% control. The inhibition activity […] of the tested compound on JAK1/JAK3 could be calculated from the inhibition rate of the tested compound on IL-2-induced cell proliferation at different doses.

Some results are limits rather than exact numbers.

As for `CONC(=O)c1cnc(Nc2ccc(F)cn2)cc1Nc1ccc(OC)nc1N(C)S(C)(=O)=O` [Example 8, 6-((5-fluoropyridin-2-yl)amino)-N-methoxy-4-((6-methoxy-2-(N-methylmethanesulfonamido)pyridin-3-yl)amino)nicotinamide], the IC50 in assay [1] and in assay [2] was over 10 µM throughout.
As for `CCONC(=O)c1cnc(Nc2cc(C)nc(C)n2)cc1Nc1cc(Cl)c(C2CC2)cc1N(C)S(C)(=O)=O` [Example 149], the IC50 in assay [1] and in assay [2] was over 10 µM throughout.
As to `C#Cc1ccc(Nc2cc(Nc3ncccn3)ncc2C(=O)NOCC)c(N(C)S(C)(=O)=O)c1` [Example 163, N-ethoxy-4-((4-ethynyl-2-(N-methylmethanesulfonamido)phenyl)amino)-6-(pyrimidin-2-ylamino)nicotinamide], the IC50 in assay [1] and in assay [2] was over 10 µM each time.
With `C#Cc1ccc(Nc2cc(Nc3nc(C)cc(C)n3)ncc2C(=O)NOCC)c(N(C)S(C)(=O)=O)c1` [Example 164, 6-((4,6-dimethylpyrimidin-2-yl)amino)-N-ethoxy-4-((4-ethynyl-2-(N-methylmethanesulfonamido)phenyl)amino)nicotinamide], the IC50 in assay [1] and in assay [2] was over 10 µM each time.
Regarding `CCONC(=O)c1cnc(Nc2cc(C)c(F)cn2)cc1Nc1cc(F)c(C2CC2)cc1N(C)S(C)(=O)=O` [Example 99, 4-((4-cyclopropyl-5-fluoro-2-(N-methylmethanesulfonamido)phenyl)amino)-N-ethoxy-6-((5-fluoro-4-methylpyridin-2-yl)amino)nicotinamide], the IC50 in assay [1] and in assay [2] was over 10 µM throughout.
With `CONC(=O)c1cnc(NC(=O)C2CC2)cc1Nc1ccc(C)nc1N(C)S(C)(=O)=O` [Example 59, 6-(cyclopropylcarboxamido)-N-methoxy-4-((6-methyl-2-(N-methylmethanesulfonamido)pyridin-3-yl)amino)nicotinamide], the IC50 in assay [1] and in assay [2] was over 10 µM each time.
For `CONC(=O)c1cnc(NC(=O)C2CC2)cc1Nc1cccc(-c2cnn(C)c2)c1C#N` [Example 48, 4-((2-cyano-3-(1-methyl-1H-pyrazol-4-yl)phenyl)amino)-6-(cyclopropylcarboxamido)-N-methoxy nicotinamide], the IC50 in assay [1] and in assay [2] was over 10 µM each time.
On to `CCONC(=O)c1cnc(NC(=O)C2CC2)cc1Nc1cc(C)c(C2CC2)cc1N(C)S(C)(=O)=O` [Example 120, 6-(cyclopropylcarboxamido)-4-((4-cyclopropyl-5-methyl-2-(N-methylmethanesulfonamido)phenyl)amino)-N-ethoxy nicotinamide], for which the IC50 in assay [1] and in assay [2] was over 10 µM throughout.
In the case of `CCONC(=O)c1cnc(Nc2ccc(C3CC3)cn2)cc1Nc1ccc(Cl)cc1N(C)S(C)(=O)=O` [Example 152, 4-((4-chloro-2-(N-methylmethanesulfonamido)phenyl)amino)-6-((5-cyclopropylpyridin-2-yl)amino)-N-ethoxy nicotinamide], the IC50 in assay [1] and in assay [2] was over 10 µM throughout.
`CONC(=O)c1cnc(Nc2ccc(C)cn2)cc1Nc1ccc(C)cc1N(C)S(C)(=O)=O` [Example 107, N-methoxy-4-((4-methyl-2-(N-methylmethanesulfonamido)phenyl)amino)-6-((5-methylpyridin-2-yl)amino)nicotinamide]: the IC50 in assay [1] and in assay [2] was over 10 µM throughout.
As to `CONC(=O)c1cnc(Nc2ccc(C#N)cc2)cc1Nc1ccccc1N(C)S(C)(=O)=O` [Example 103, 6-((4-cyanophenyl)amino)-N-methoxy-4-((2-(N-methylmethanesulfonamido)phenyl)amino)nicotinamide], the IC50 in assay [1] and in assay [2] was over 10 µM throughout.
For the compound `CONC(=O)c1cnc(Nc2ccc(F)cn2)cc1Nc1cccc(C(F)(F)F)c1N(C)S(C)(=O)=O` [Example 84, 6-((5-fluoropyridin-2-yl)amino)-N-methoxy-4-((2-(N-methylmethanesulfonamido)-3-(trifluoromethyl)phenyl)amino)nicotinamide], the IC50 in assay [1] and in assay [2] was over 10 µM each time.
As to `CCONC(=O)c1cnc(Nc2ccnn2C)cc1Nc1cc(F)c(C2CC2)cc1N(C)S(C)(=O)=O` [Example 168, 4-((4-cyclopropyl-5-fluoro-2-(N-methylmethanesulfonamido)phenyl)amino)-N-ethoxy-6-((1-methyl-1H-pyrazol-5-yl)amino)nicotinamide], the IC50 in assay [1] and in assay [2] was over 10 µM in each case.
With `CONC(=O)c1cnc(Nc2ccc(F)cc2)cc1Nc1cccnc1N(C)S(C)(=O)=O` [Example 17, 6-((4-fluorophenyl)amino)-N-methoxy-4-((2-(N-methylmethanesulfonamido)pyridin-3-yl)amino)nicotinamide], the IC50 in assay [1] and in assay [2] was over 10 µM each time.
Regarding `CCONC(=O)c1cnc(Nc2nc(C)cc(C)n2)cc1Nc1ccc(C)cc1N(C)S(=O)(=O)C1CC1` [Example 66, 6-((4,6-dimethylpyrimidin-2-yl)amino)-N-ethoxy-4-((4-methyl-2-(N-methylcyclopropylsulfonamido)phenyl)amino)nicotinamide], the IC50 in assay [1] and in assay [2] was over 10 µM in each case.
As for `CCONC(=O)c1cnc(Nc2ncccn2)cc1Nc1ccc(C2CC2)cc1N(C)S(C)(=O)=O` [Example 124, 4-((4-cyclopropyl-2-(N-methylmethanesulfonamido)phenyl)amino)-N-ethoxy-6-(pyrimidin-2-ylamino)nicotinamide], the IC50 in assay [1] and in assay [2] was over 10 µM in each case.
`C#Cc1ccc(Nc2cc(Nc3cccc(F)n3)ncc2C(=O)NOC(C)C)c(N(C)S(C)(=O)=O)c1` [Example 24]: the IC50 in assay [1] and in assay [2] was over 10 µM in each case.
For the compound `CONC(=O)c1cnc(NC(=O)C2CC2)cc1Nc1cccc(-c2ccn(C)n2)c1OCC(F)(F)F` [Example 50, 6-(cyclopropylcarboxamido)-N-methoxy-4-((3-(1-methyl-1H-pyrazol-3-yl)-2-(2,2,2-trifluoroethoxy)phenyl)amino)nicotinamide], the IC50 in assay [1] and in assay [2] was over 10 µM each time.
In the case of `CONC(=O)c1cnc(Nc2cccc(F)n2)cc1Nc1cccc(C(F)(F)F)c1N(C)S(C)(=O)=O` [Example 83, 6-((6-fluoropyridin-2-yl)amino)-N-methoxy-4-((2-(N-methylmethanesulfonamido)-3-(trifluoromethyl)phenyl)amino)nicotinamide], the IC50 in assay [1] and in assay [2] was over 10 µM throughout.
Take `CCONC(=O)c1cnc(Nc2ncc(C)s2)cc1Nc1ccc(OC)cc1N(C)S(C)(=O)=O` [Example 172, N-ethoxy-4-((4-methoxy-2-(N-methylmethanesulfonamido)phenyl)amino)-6-(5-methylthiazol-2-ylamino)nicotinamide]: the IC50 in assay [1] and in assay [2] was over 10 µM each time.
Turning to `CCNC(=O)c1cnc(NC(=O)C2CC2)cc1Nc1cccc(-c2cnn(C)c2)c1OC` [Example 71, 6-(cyclopropylcarboxamido)-N-ethyl-4-((2-methoxy-3-(1-methyl-1H-pyrazol-4-yl)phenyl)amino)nicotinamide], the IC50 in assay [1] and in assay [2] was over 10 µM each time.
Turning to `CONC(=O)c1cnc(Nc2cccc(F)n2)cc1Nc1cccc(Cl)c1N(C)S(C)(=O)=O` [Example 76, 4-((3-chloro-2-(N-methylmethanesulfonamido)phenyl)amino)-6-((6-fluoropyridin-2-yl)amino)-N-methoxy nicotinamide], the IC50 in assay [1] and in assay [2] was over 10 µM throughout.
Turning to `CCONC(=O)c1cnc(Nc2cccc(F)n2)cc1Nc1ccccc1NS(C)(=O)=O` [Example 117, N-ethoxy-6-((6-fluoropyridin-2-yl)amino)-4-((2-(methanesulfonamido)phenyl)amino)nicotinamide], the IC50 in assay [1] and in assay [2] was over 10 µM each time.
Consider `N#CC[C@H](C1CCCC1)n1cc(-c2ncnc3[nH]ccc23)cn1` [ruxolitinib, reference compound], for which, in assay [1], the IC50 was under 0.1 µM.

The values above are taken from patent US20240101548A1, “HYDROXAMATE COMPOUND, PREPARATION METHOD THEREFOR AND APPLICATION THEREOF” (SHENZHEN CHIPSCREEN BIOSCIENCES CO., LTD., priority 2020, published 2024).
